Values joined by “and” are separate entries in the source; they are usually repeats but may differ in a detail not shown here. Identical values can stand only once.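 Results reflect a 48-hour exposure of cells in 96-well plates to compound at five concentrations. GI50 marks 50% less growth. TGI: total growth inhibition.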
Legend:
Test in all cases: inhibition of tumour cell growth, NCI panel, 48 h
SF-268 CNS = system: SF-268 CNS
HS 578T breast = system: HS 578T breast
NCI-H460 lung = system: NCI-H460 lung
NCI-H522 lung = system: NCI-H522 lung
SR leukemia = system: SR leukemia
BT-549 breast = system: BT-549 breast
TK-10 renal = system: TK-10 renal
OVCAR-3 ovarian = system: OVCAR-3 ovarian
MCF7 breast = system: MCF7 breast
HOP-92 NSCLC = system: HOP-92 NSCLC

SMILES	GI50 (SF-268 CNS) [µM]	TGI (SF-268 CNS) [µM]	GI50 (HS 578T breast) [µM]	TGI (HS 578T breast) [µM]	GI50 (NCI-H460 lung)	TGI (NCI-H460 lung) [µM]	GI50 (NCI-H522 lung) [µM]	TGI (NCI-H522 lung) [µM]	GI50 (SR leukemia)	TGI (SR leukemia) [µM]	GI50 (BT-549 breast) [µM]	TGI (BT-549 breast) [µM]	GI50 (TK-10 renal) [µM]	TGI (TK-10 renal) [µM]	GI50 (OVCAR-3 ovarian)	TGI (OVCAR-3 ovarian) [µM]	GI50 (MCF7 breast)	TGI (MCF7 breast) [µM]	GI50 (HOP-92 NSCLC)	TGI (HOP-92 NSCLC)
Cn1cnc([N+](=O)[O-])c1S(=O)(=O)Oc1ccc(Cl)cc1	15.7	38.1	19.6	68.1	32.3 µM	> 100	1.82	4.22	1.85 µM	4.36	13.3	28.8	27.8	> 100	1.86 µM	3.42	22.9 µM	96.1	1.61 µM	3.37 µM
O=C(COc1ccccc1)NNc1ccccc1	140	> 300	98.3	> 300	17.1 µM and 15.8 µM	> 300	7.79	–	> 26.3 µM and 6.77 µM	> 300	90.7	> 300	> 300	> 300	> 95.4 µM and 191 µM	> 300	47.8 µM and 38.8 µM	> 300	71 µM	216 µM
COc1cc2c3c(n(CCCN=[N+]=[N-])c(=O)c2cc1OC)-c1ccc(F)cc1C3=O	3.8	> 100	> 100	> 100	1.87 µM	13.3	4.89	> 100	0.449 µM	2.68	12.4	> 100	73.7	> 100	6.11 µM	> 100	3.78 µM	> 100	2.27 µM	8.15 µM
CCOc1ccc(-c2nc3ccc(-c4nc5ccc(N6CCN(C)CC6)cc5[nH]4)cc3[nH]2)cc1	0.361	1.67	0.476	2.52	0.489 µM	1.67	0.09	0.442	0.311 µM	2.67	1.16	2.46	1.05	2.24	0.125 µM	0.393	0.0328 µM	0.38	0.213 µM and 0.0913 µM	2.27 µM and 1.52 µM
COc1cccc(S(=O)(=O)NC2=NCCN2C(=S)SN2CCn3c2nsc3=S)c1	59.3	> 100	90.3	> 100	58.3 µM	> 100	20.1	40.9	18 µM	51.3	29.9	99.8	34.4	81.5	25.6 µM	56.5	39.4 µM	> 100	44.4 µM	> 100 µM
COc1cc2c(cc1OC)[C@@H]1C(=O)c3ccc4c(c3O[C@@H]1CO2)C[C@H](C(C)C)O4	11.7	> 62.2	8.15	> 46.6	4.33 µM	45.8	0.961	–	1.42 µM	> 23.6	0.279	20.8	5.37	> 49	7.81 µM	> 41.1	2.66 µM	> 52.2	2.04 µM	22.3 µM
CCCCCCOC(=O)CC1=C(C)/C(=C/c2[nH]c(-c3ccc[nH]3)cc2OC)N=C1C	0.0818	2	0.133	1.17	0.355 µM	1.39	0.0506	1.12	0.0307 µM	0.182	0.0865	1.59	0.108	1.38	0.168 µM	1.15	0.0961 µM	1.38	0.0332 µM	0.351 µM
COc1ccc(C2c3ccc4ccccc4c3Oc3ncn(CCCn4ccnc4)c(=N)c32)cc1OC (stereo not drawn)	3.52	13.8	2.26	7.46	3.65 µM	13.2	1.87	4.36	1.57 µM	4.15	3.41	13.5	4	14.4	3.44 µM	11	3.11 µM	12.3	1.3 µM	6.64 µM
COc1cccc(/C=N\NC(=O)c2ccncc2)c1O	3.47	> 100	> 100	> 100	3.63 µM	> 100	3.24	> 100	2.98 µM	> 100	4.48	68.3	4.78	> 100	4.61 µM	> 100	6.27 µM	> 100	3.16 µM	> 100 µM
c1cc(OCCN2CCCC2)ccc1CNc1ccc2nc(CCC3CCCCC3)[nH]c2c1	1.82	4.38	1.62	4.53	2.13 µM	4.87	2.1	4.47	0.29 µM	1.03	1.56	3.17	2.98	7.97	1.67 µM	3.52	1.63 µM	4.66	0.471 µM	2.25 µM
Nc1nc(-c2cccnc2)cc(-c2cc(-c3cccnc3)nc(N)n2)n1	–	> 100	–	> 100	–	> 100	–	> 100	–	> 100	–	> 100	–	> 100	–	> 100	–	> 100	–	> 100 µM
COc1cc(OC)c(C(=O)/C=C/c2ccc(C#N)cc2)c(OC)c1	1.97	46.5	1.93	> 50	1.35 µM	3.94	1.04	2.92	0.813 µM	> 50	1.3	5.11	1.71	24	1.77 µM	7.93	1.49 µM	> 50	1.34 µM	4.96 µM
O=C(Nc1ccc(Cl)c(C(F)(F)F)c1)Nc1ccc(-c2cccnc2)cc1N1CCC(CO)CC1	2.39	8.21	2.79	8.46	2.32 µM	6.24	1.73	3.43	3.49 µM	> 100	2.13	6.22	1.85	4.76	1.84 µM	4.3	2.2 µM	6.96	2.22 µM	5.6 µM
